The source of these data is publication PMC8151276, “An Integrated Approach toward NanoBRET Tracers for Analysis of GPCR Ligand Engagement” (Molecules, 2021).

Assay type in all cases: binding
The target of one experiment is T1, VIPR1 (Homo sapiens, UniProt P32241).
T1 construct: purchased Promega (in-house HiBiT-GPCR construct library, NanoBRET)
T1 sequence (P32241 31-457): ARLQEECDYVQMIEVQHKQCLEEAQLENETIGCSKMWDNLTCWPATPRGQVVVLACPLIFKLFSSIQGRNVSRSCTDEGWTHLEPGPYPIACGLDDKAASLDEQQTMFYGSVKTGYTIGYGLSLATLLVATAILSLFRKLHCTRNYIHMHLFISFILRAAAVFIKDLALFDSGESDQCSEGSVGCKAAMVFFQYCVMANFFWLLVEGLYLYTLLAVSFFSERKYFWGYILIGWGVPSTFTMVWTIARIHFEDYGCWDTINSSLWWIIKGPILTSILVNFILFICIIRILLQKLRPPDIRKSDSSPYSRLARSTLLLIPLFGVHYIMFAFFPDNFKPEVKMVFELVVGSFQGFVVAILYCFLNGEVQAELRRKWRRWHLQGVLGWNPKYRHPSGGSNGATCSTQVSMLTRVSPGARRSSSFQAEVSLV
Nature of the experiment: NanoBRET screen HiBiT-VIPR1 in HEK293. The procedure:
(§1) Each tracer candidate was screened across the entire library of HiBiT-GPCR constructs using NanoBRET as the detection modality. As depicted in Figure 4A, the specificity of interactions was evaluated through decrease in BRET due to competitive displacement of a bound tracer by excess parental compound. Each tracer was analyzed for binding to each HiBiT-GPCR fusion in the absence and in the presence of competing parental compound. Briefly, HEK293 cells were transfected with HiBiT-GPCR constructs diluted into promoterless DNA to reduce expression and maximize translocation to the cell surface. Each tracer candidate was then screened at concentrations of 1 μM and 0.1 μM across cells expressing these fusions. Cells were treated for 1.5 h with tracer either alone or in the presence of 20 μM competing parental compound (i.e., control). BRET was measured upon addition of purified LgBiT and subsequent complementation with HiBiT genetically fused to a GPCR. The specificity of interactions was assessed through a decrease in BRET signal due to competitive displacement of the bound tracer. To further gauge the robustness of these interactions, the fold response over the control (i.e., BRETtracer/BRETcontrol) was calculated. We chose a 1.5-fold response, which translates to ≥7-fold signal over noise as the minimal threshold required to score an interaction as positive. […]. Below we highlight the screening results obtained for our exemplary fluorescent tracers based on Clozapine, Amitriptyline and AZD1283.
(§2) HiBiT-GPCR DNA constructs were diluted in 10 mM Tris pH 8 to a final concentration of 0.01 μg/μL, arrayed in 96-well plates and stored at −20 °C. For transfection, HEK293 cells were suspended in Opti-MEM (without phenol red) supplemented with 2% fetal bovine serum (Seradigm) and 100 units/mL penicillin–streptomycin (Gibco) at a final concentration of 220,000 cells/mL and dispensed into white 96-well plates at 90 μL/well. Subsequent transfections and screens were carried using an Agilent Bravo Automated Liquid Handling Platform. First, the 96-well HiBiT DNA arrays were diluted 25-fold in Opti-MEM (without serum or phenol red) to a final concentration of 0.0004 μg/μL and 20 μL of the diluted DNAs were transferred into new 96-well plates. Next, promoterless carrier DNA (1 μg/μL) was diluted 25-fold (0.04 μg/μL) and then dispensed into the diluted arrays at 20 μL/well. Following brief mixing, Viafect transfection reagent (Promega) diluted 16-fold into Opti-MEM was dispensed into the plates at 40 μL/well. After mixing by pipetting, plates were incubated for 10 min on the pipetting station deck. The DNA-transfection reagent complexes were then added to plates containing cells. To facilitate the screen, 10 μL of DNA-transfection reagent complexes were added in duplicates to the top 4 and bottom 4 rows, resulting in two identical 48-well arrays per plate. Plates with transfected cells were incubated for 18–20 h at 37 °C/5% CO2. A screen of each tracer across the entire library using two different concentrations requires duplicate plates of transfected cells. Depending on the number of tracers being screened, transfections can be scaled up using the same ratios. The next day, for each tracer, four 20× screening solutions in tracer dilution buffer (Promega) were prepared: two duplicates at final concentration of 20 μM and two duplicates at a final concentration of 2 μM. A competing unmodified compound was added to one of each duplicate at a final concentration of 400 μM. The four resulting solutions were diluted 4-fold in Opti-MEM without serum or phenol red to generate 5× solutions (5 µM and 0.5 µM tracer +/− 100 μM competing compound). To screen the library, a BioTek MultiFlo FX liquid dispenser was used to dispense 22.5 µL of tracer solution to the top 4 rows and 22.5 µL tracer + competing compound solution to the 4 bottom rows. Plates were briefly mixed on an orbital shaker and incubated for 1.5 h at room temperature. […]

In a further experiment the target is T2, AVPR1B (Homo sapiens, UniProt P47901).
T2 construct: purchased Promega (in-house HiBiT-GPCR construct library, NanoBRET)
T2 sequence (P47901 1-424): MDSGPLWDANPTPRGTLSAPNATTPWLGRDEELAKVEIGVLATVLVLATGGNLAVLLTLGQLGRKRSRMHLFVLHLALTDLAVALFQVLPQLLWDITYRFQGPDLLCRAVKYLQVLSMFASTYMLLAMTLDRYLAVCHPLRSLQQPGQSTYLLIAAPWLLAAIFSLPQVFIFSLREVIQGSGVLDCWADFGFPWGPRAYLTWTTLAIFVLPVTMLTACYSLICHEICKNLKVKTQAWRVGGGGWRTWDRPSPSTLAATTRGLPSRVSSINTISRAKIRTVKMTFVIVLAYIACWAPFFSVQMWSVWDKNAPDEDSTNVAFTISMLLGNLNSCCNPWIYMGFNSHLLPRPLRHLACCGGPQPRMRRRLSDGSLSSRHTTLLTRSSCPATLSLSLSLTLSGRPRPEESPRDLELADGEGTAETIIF
Nature of the experiment: NanoBRET screen HiBiT-AVPR1B in HEK293. The procedure: as §1, §2

The target in another experiment is T3, CCKAR (Homo sapiens, UniProt P32238).
T3 construct: purchased Promega (in-house HiBiT-GPCR construct library, NanoBRET)
T3 sequence (P32238 1-428): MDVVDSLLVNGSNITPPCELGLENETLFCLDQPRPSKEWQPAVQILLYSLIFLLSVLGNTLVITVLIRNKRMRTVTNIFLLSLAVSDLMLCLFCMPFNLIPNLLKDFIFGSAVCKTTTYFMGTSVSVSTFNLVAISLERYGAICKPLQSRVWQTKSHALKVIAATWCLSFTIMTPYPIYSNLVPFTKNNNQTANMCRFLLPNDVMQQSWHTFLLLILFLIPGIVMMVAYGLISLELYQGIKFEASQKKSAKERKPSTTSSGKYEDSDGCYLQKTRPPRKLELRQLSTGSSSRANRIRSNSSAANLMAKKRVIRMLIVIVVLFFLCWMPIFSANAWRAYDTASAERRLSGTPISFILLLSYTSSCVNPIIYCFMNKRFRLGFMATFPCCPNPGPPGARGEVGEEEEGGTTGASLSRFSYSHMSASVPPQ
Nature of the experiment: NanoBRET screen HiBiT-CCKAR in HEK293. The procedure: as §1, §2
On the technique in general: Bioluminescence resonance energy transfer reports proximity on the nanometre scale.

The target of the next experiment is T4, HRH2 (Homo sapiens, UniProt P25021).
T4 construct: purchased Promega (in-house HiBiT-GPCR construct library, NanoBRET)
Nature of the experiment: NanoBRET screen HiBiT-HRH2 in HEK293. The procedure:
as §1, §2

Setting [1] is: tracer at 0.1μM, listed as amitriptyline-b-2-NB590.
[2] abbreviates: tracer at 1μM, listed as amitriptyline-b-2-NB590.

T4 sequence (P25021 whole entry): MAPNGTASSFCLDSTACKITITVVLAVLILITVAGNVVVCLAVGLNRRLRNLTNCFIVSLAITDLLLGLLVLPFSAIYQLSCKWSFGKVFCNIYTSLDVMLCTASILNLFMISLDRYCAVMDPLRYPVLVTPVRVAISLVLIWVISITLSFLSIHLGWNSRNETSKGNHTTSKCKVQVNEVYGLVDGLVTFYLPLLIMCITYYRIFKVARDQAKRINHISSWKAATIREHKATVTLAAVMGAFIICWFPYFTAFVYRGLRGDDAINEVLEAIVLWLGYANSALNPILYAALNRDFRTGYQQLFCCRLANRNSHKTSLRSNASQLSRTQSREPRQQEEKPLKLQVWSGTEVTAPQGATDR

In the case of `Cc1cc2c(s1)Nc1ccccc1N=C2N1CCN(CCCNC(=O)CCOCCOCCOCCOCCNC(=O)CCc2ccc3n2[B-](F)(F)[N+]2=C(c4ccc[nH]4)C=CC2=C3)CC1` [Olanzapine-a-2-NB590], the “NanoBRET Fold Response” value on VIPR1 (VIPR1, tracer 0.1μM) is recorded as 1.06; on VIPR1 (VIPR1, tracer 1μM), 1.04; at AVPR1B (AVPR1B, tracer 0.1μM), 1.03; at AVPR1B (AVPR1B, tracer 1μM), 1.17; at CCKAR (CCKAR, tracer 0.1μM) it was 1.02; at CCKAR (CCKAR, tracer 1μM), 1.04. Further, the “NanoBRET Fold Response” value is recorded as 0.89 on HRH2 (HRH2, tracer 0.1μM) and 0.85 at HRH2 (HRH2, tracer 1μM).

For `N#CN=C(NCCCOc1cccc(CN2CCCCC2)c1)NCCNC(=O)CCOCCOCCOCCOCCNC(=O)CCc1ccc2n1[B-](F)(F)[N+]1=C(c3ccc[nH]3)C=CC1=C2` [Aminopotentidine-2-NB590], the “NanoBRET Fold Response” value at VIPR1 (VIPR1, tracer 0.1μM) turned out to be 1.02; on VIPR1 (VIPR1, tracer 1μM), 1.00; at AVPR1B (AVPR1B, tracer 0.1μM) it was 1.09; at AVPR1B (AVPR1B, tracer 1μM), 1.04; on CCKAR (CCKAR, tracer 0.1μM), 0.98; at CCKAR (CCKAR, tracer 1μM), 1.04. Also, the “NanoBRET Fold Response” value was 5.51 on HRH2 (HRH2, tracer 0.1μM) and 3.65 on HRH2 (HRH2, tracer 1μM).

Consider `Cc1nc2n(c(=O)c1CCN1CCC(c3noc4cc(F)ccc34)CC1)CCCC2OC(=O)NCCOCCOCCOCCOCCNC(=O)CCc1ccc2n1[B-](F)(F)[N+]1=C(c3ccc[nH]3)C=CC1=C2` (centres unmarked) [Risperidone-2-NB590], for which the “NanoBRET Fold Response” value on VIPR1 (VIPR1, tracer 0.1μM) was 0.98; at VIPR1 (VIPR1, tracer 1μM), 1.10; at AVPR1B (AVPR1B, tracer 0.1μM) it was 1.06; at AVPR1B (AVPR1B, tracer 1μM), 0.98; on CCKAR (CCKAR, tracer 0.1μM), 1.20; on CCKAR (CCKAR, tracer 1μM), 0.99. Also, the “NanoBRET Fold Response” value at HRH2 (HRH2, tracer 0.1μM) worked out at 1.05; on HRH2 (HRH2, tracer 1μM) it was 1.13.

Regarding `CN(C)CCC=C1c2ccccc2CCc2ccc(C(=O)NCCNC(=O)CCOCCOCCOCCOCCNC(=O)CCc3ccc4n3[B-](F)(F)[N+]3=C(c5ccc[nH]5)C=CC3=C4)cc21` [Amitriptyline-b-2-NB590], the “NanoBRET Fold Response” value at VIPR1 (setting [1]) stood at 0.98; at VIPR1 (tracer at 1μM), 0.96; on AVPR1B (setting [1]), 0.84; on AVPR1B (setting [2]) it was 1.18; on CCKAR (setting [1]), 1.11; at CCKAR (setting [2]), 0.98. Moreover, the entries for the “NanoBRET Fold Response” value on HRH2 (setting [1]) and at HRH2 (setting [2]) were 0.85 and 1.05, respectively.
